Assay results from ChEMBL document CHEMBL1154198, “Chemical genetics of Plasmodium falciparum” (Nature, 2010).

Legend:
Plasmodium falciparum [1] = experiment: ST_JUDE: Plasmodium falciparum 3D7 EC50 (uM) as measured by SYBR green dye; format: functional, organism-based
Plasmodium falciparum [2] = experiment: ST_JUDE: Plasmodium falciparum K1 EC50 (uM) as measured by SYBR green dye; format: functional, organism-based

Structure (SMILES) | EC50 (Plasmodium falciparum [1]) [µM] | EC50 (Plasmodium falciparum [2]) [µM]
O=C(Nc1ccc(Br)cc1)Nc1cccc(Cl)c1 | > 15 | 5.49
COc1ccc2nc(C)cc(Nc3ccc(Cl)c(Cl)c3)c2c1 | 1.14 | 4.84
CCCCOc1ccc(N2C(N)=NC(N)=NC2(C)C)cc1 | 2.79 | > 15
COCCCNc1nc2cc(OC)c(OC)cc2c2nc(-c3ccccc3)nn12 | 0.0855 | > 15
Oc1ccc(Cl)cc1Nc1nc(C(F)(F)F)nc2ccccc12 | 1.2 | 0.638
Nc1ccc(-c2nc3cc(Cc4ccc5[nH]c(-c6ccc(N)cc6)nc5c4)ccc3[nH]2)cc1 | 1.08 | 1.13
O=C(Cc1ccccc1)N1CCOc2c(cc(-c3csc4ccccc34)cc2OCCc2ccccn2)C1 | 1.63 | 0.762
COc1ccc2nc(C)cc(Nc3cccc(Cl)c3)c2c1 | 1.24 | 9.41
O=C(Nc1ccccc1Cl)c1cc2ccccc2cc1O | > 15 | 0.547
CC(=O)N(C1=C(N2CCCCC2)C(=O)c2ccccc2C1=O)c1ccc(F)cc1 | 2.72 | 3.89
CCSCCN1C(=O)CSC1c1cnccc1-c1ccc(Br)cc1 (centres undefined) | 4.91 | > 15
COC(=O)c1ccc(NC(=O)CN(Cc2ccc(Cl)cc2)S(=O)(=O)c2ccccc2)cc1 | 7.32 | 5.1
CCN(CC)S(=O)(=O)c1ccc(C(=O)NNc2nc3c(OC)ccc(OC)c3s2)cc1 | > 15 | 3.93
Cc1nc2c3cc(F)ccc3n(C)c2s1 | > 15 | > 15
O=C1/C(=C/c2ccc(F)cc2)Oc2c1ccc(O)c2CN1CCCCC1 | 2.03 | 0.469
Cc1ccc2ccc(C(Nc3ccccn3)c3ccncc3)c(O)c2n1 (centres undefined) | 6.5 | > 15
CCCO/C(O)=C1\C(C)=NC2=C(C(=O)CC(c3ccccc3)C2)C1c1cc(Cl)c(O)c(OC)c1 (centres undefined) | 3.35 | 2.88
COc1ccccc1NC(=O)CN1CCN(C(=O)c2ccco2)CC1 | 2.84 | 4.84
CCN(CC)CCn1c(=N)n(CC(O)COc2ccccc2C)c2ccccc21 (centres undefined) | 4.06 | 4.48
COC(=O)c1cn(NC(=O)c2cccc(F)c2)c(=O)c2ccccc12 | 6.66 | > 15
Cc1ccc2ccc(C(Nc3ccccn3)c3cccc(Br)c3)c(O)c2n1 (centres undefined) | > 15 | 4.78

Structure (SMILES) | EC50 (Plasmodium falciparum [1]) [µM] | EC50 (Plasmodium falciparum [2]) [µM]
O=C(Nc1ccc(F)c(F)c1)c1ccc(=O)n(Cc2cccc([N+](=O)[O-])c2)c1 | > 15 | > 15
Cc1ccc(/C=C2\C(=O)NC(=O)N(c3ccc(Br)cc3)C2=O)cc1[N+](=O)[O-] | 4.47 | 5.16
O=C(CC1N=C2c3ccccc3N=C(SCc3cccc(F)c3)N2C1=O)NCc1ccco1 (centres undefined) | 2.31 | 2.01
CN1CCN(c2ccc(NC(=O)c3cccc(I)c3)cc2Cl)CC1 | 7.44 | > 15
CCCCNC(=S)NCCc1c(C)[nH]c2ccccc12 | > 15 | > 15
CCc1cc(Br)ccc1NC(=O)Nc1ccc([N+](=O)[O-])cc1 | > 15 | > 15
COCCN1C(=O)c2ccccc2C(C(=O)Nc2ccc(OC)c(Cl)c2)C1c1cccs1 (centres undefined) | 2.01 | 2.48
Cc1cccc(NS(=O)(=O)c2cc3c4c(c2)CCN4C(=O)CC3)c1 | > 15 | > 15
CC[N+](C)(CC)CCCOc1ccc2c(c1)C(=O)c1cc(OCCC[N+](C)(CC)CC)ccc1-2 | 0.655 | 0.413
CCOC(=O)C1=C(c2ccccc2)N=c2s/c(=C\c3cccc(O)c3)c(=O)n2C1c1cccc(OC)c1OC (centres undefined) | 3.26 | 2.18
COc1ccc(S(=O)(=O)/N=C2/C=C(Sc3nc[nH]n3)C(=O)c3ccccc32)cc1 | 1.94 | 2.34
O=C1c2ccccc2C(=O)c2cc(S(=O)(=O)N(CCO)CCO)ccc21 | 5.89 | 3.21
CCS(=O)(=O)c1ccccc1C(=O)Nc1nc(-c2ccccn2)cs1 | 6.53 | 5.14
COc1ccc(CCNC(=S)Nc2ccccc2SC)cc1OC | 5.2 | 4.3
CSc1cccc(NC(=O)Cn2c(C)c(C=O)c3ccccc32)c1 | 4.56 | 4.29
CS(=O)(=O)Nc1ccc2c(c1)CCCN2C(=O)c1cccs1 | > 15 | 7.55
Cc1cccc(NC2=C(N3CCCCC3)C(=O)c3ccccc3C2=O)c1 | 0.0527 | 0.181
C=CCOc1cccc(C(Nc2cc(C)ccn2)c2ccc3cccnc3c2O)c1 (centres undefined) | 3.17 | 4.09
CCCO/C(O)=C1\C(C)=NC2=C(C(=O)CC(c3ccccc3OC)C2)C1c1ccc([N+](=O)[O-])cc1 (centres undefined) | 0.759 | 1.15
Cc1ccccc1OCC(O)Cn1c(=N)n(CCN2CCCCC2)c2ccccc21 (centres undefined) | 4.76 | 5.4
O=S(=O)(/N=C(\Nc1ccc(Br)cc1)c1ccccc1)c1ccccc1 | > 15 | > 15

Structure (SMILES) | EC50 (Plasmodium falciparum [1]) [µM] | EC50 (Plasmodium falciparum [2]) [µM]
Cc1cccc(CN2C(=O)/C(=C\c3ccc(C(=O)N4CCC(N5CCCCC5)CC4)cc3)Oc3ccccc32)c1 | 4.03 | > 15
COc1ccc(C)cc1S(=O)(=O)Nc1ccc(Nc2nc(C)cc(N3CCCC3)n2)cc1 | 0.759 | > 15
O=C(CSc1nccn1-c1ccc([N+](=O)[O-])cc1)N1CCc2ccccc21 | > 15 | > 15
CCCCC(O)(c1ccc(Cl)cc1)C(CN1CCOCC1)c1ccc(Cl)cc1 (centres undefined) | 4.01 | 1.64
Fc1ccc(Nc2nc(NCCN3CCOCC3)nc3c2cnn3-c2ccccc2)cc1 | > 15 | 6.75
COc1ccc(Cl)cc1NC(=O)CSc1nc(-c2ccccc2Cl)ns1 | 1.43 | 2.66
CCC(C)NC(=O)N1CCC(n2nccc2NC(=O)CCCc2ccccc2)CC1 (centres undefined) | > 15 | > 15
COc1ccc(NC(=O)c2c(-c3c(Cl)cccc3Cl)noc2C)c(OC)c1 | > 15 | 5.43
CCN(CC)c1cc(C)nc(Nc2ccc(NS(=O)(=O)c3cc(C)ccc3OC)cc2)n1 | 4.17 | > 15
COC(=O)C1C(O)=C2C(=Nc3ccccc3NC2c2ccccc2OC(C)C)CC1C (centres undefined) | > 15 | > 15
CCCCN(CC)CCNC(=O)c1cc2c(-c3ccccc3F)nn(C)c2s1 | 2.07 | > 15
COC(=O)c1ccc(Nc2nc(NCc3ccco3)c3ccccc3n2)cc1 | 4.89 | 8.54
COc1ccc(-c2nn(C)c3sc(C(=O)Nc4cccc(Cl)c4)cc23)cc1OC | > 15 | 6.94
COc1cc(C(=O)NCC(C)Oc2cccc(CN(C)Cc3cscn3)c2)cc(OC)c1OC (centres undefined) | > 15 | > 15
CCN(CC)c1cc(C)c2cc(NC(=O)c3cccc(F)c3)ccc2n1 | 1.99 | 8.08
CC(=O)N(C1=C(N(C)C)C(=O)c2ccccc2C1=O)c1cccc(I)c1 | 0.0566 | 0.0862
CCc1cc2c(=O)c(Oc3ccc(Cl)cc3)coc2cc1OC(C)=O | > 15 | > 15
C=CC[n+]1c(C)n(N)c2ccccc21 | > 15 | > 15
Cc1ccc(-c2nc3ccccc3o2)cc1NC(=O)C(Cl)(Cl)Cl | 4.07 | 1.7
Cc1ccc(CN2CCN(Cc3ccc(OCCO)cc3)CC2CCO)o1 (centres undefined) | > 15 | > 15
